From the supplement of paper PMC5579334

Tests used:
HSC1 [1] = assay: relative IC50 (inflection point of fitted dose-response curve, CellTox-Green cytotoxicity, 72 h; top asymptote may be below 50%); higher = less potent
In short: (§1)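 MPNST cell lines and primary human Schwann cells were incubated 72 h at 37 °C in 384-well plates holding five 10-fold compound dilutions. CellTox-Green was added before seeding at a final 1:1000 dilution and reported fluorescence from DNA released by disrupted cells. Signals were scaled to vehicle and positive-control wells, and cultures failing plate quality control were dropped. Drug sensitivity score and relative IC50 come from four-parameter logistic fits, with IC50 censored at the top concentration.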

HSC2 [2] = assay: as above
In short: as §1

ST8814 [3] = assay: as above
In short: as §1

HSC1 [4] = assay: relative IC50 (inflection point of fitted dose-response curve, CellTiter-Glo viability, 72 h; top asymptote may be below 50% inhibition); higher = less potent
In short: (§2)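 MPNST cell lines and primary human Schwann cells (750–1000 cells per well) went into 384-well plates preprinted with each compound at five concentrations in 10-fold steps. Plates were incubated 72 h at 37 °C, 5% CO2. Viability was read as CellTiter-Glo ATP luminescence, scaled between vehicle and positive-control wells, with duplicates averaged where present. Percent inhibition is at the top concentration; drug sensitivity score and relative IC50 (censored at top concentration) come from four-parameter logistic fits.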

HSC2 [5] = assay: as above
In short: as §2

S1507-2 = assay: as above
In short: as §2

S462 = assay: as above
In short: as §2

ST8814 [6] = assay: as above
In short: as §2

STS26T [7] = assay: as above
In short: as §2

HS-PSS [8] = assay: relative IC50 (inflection point of fitted dose-response curve, CellTox-Green cytotoxicity, 72 h; top asymptote may be below 50%); higher = less potent
In short: as §1

STS26T [9] = assay: as above
In short: as §1

HS-PSS [10] = assay: relative IC50 (inflection point of fitted dose-response curve, CellTiter-Glo viability, 72 h; top asymptote may be below 50% inhibition); higher = less potent
In short: as §2

YST-1 = assay: as above
In short: as §2

HS-Sch-2 = assay: as above
In short: as §2

Compound	relative IC50 (HSC1 [1]) [nM]	relative IC50 (HSC2 [2]) [nM]	relative IC50 (ST8814 [3]) [nM]	relative IC50 (HSC1 [4]) [nM]	relative IC50 (HSC2 [5]) [nM]	relative IC50 (S1507-2) [nM]	relative IC50 (S462) [nM]	relative IC50 (ST8814 [6]) [nM]	relative IC50 (STS26T [7]) [nM]	relative IC50 (HS-PSS [8]) [nM]	relative IC50 (STS26T [9]) [nM]	relative IC50 (HS-PSS [10]) [nM]	relative IC50 (YST-1) [nM]	relative IC50 (HS-Sch-2) [nM]
COc1ncc(-c2ccc3nccc(-c4ccnnc4)c3c2)cc1NS(=O)(=O)c1ccc(F)cc1F	> 1000	> 1000	161	22.7	25.5	17.6	63.2	52.2	18.5					
Cn1cc(C[C@@H](N)C(=O)O)c2ccccc21 [1-methyl-D-tryptophan aq]	> 5000	> 5000	> 5000	> 5000	> 5000	> 5000	> 5000	> 5000	> 5000					
CNC(=O)c1ccc(N2C(=S)N(c3cnc(C#N)c(C(F)(F)F)c3)C(=O)C23CCC3)cc1F [ARN 509]	> 10000	> 10000	> 10000	> 10000	> 10000	> 10000	> 10000	> 10000	> 10000	> 10000				
CN(C)C/C=C/C(=O)Nc1cc2c(Nc3ccc(F)c(Cl)c3)ncnc2cc1O[C@H]1CCOC1 [Afatinib]	> 1000	> 1000	> 1000	> 1000	> 1000		> 1000	> 1000	> 1000	> 1000	> 1000	148	> 1000	
CN(C)CCN1C(=O)c2cccc3cc(N)cc(c23)C1=O [Amonafide]	> 10000		3150	1350	1860	1360	1650	1690	2240	2150		2410	1020	1700
CC1=C2C[C@H]3[C@@H](CC=C4C[C@@H](O)CC[C@@]43C)[C@@H]2CC[C@]12O[C@@H]1C[C@H](C)CN[C@H]1[C@H]2C [Cyclopamine]	> 10000	> 10000	> 10000	> 10000	> 10000		> 10000	> 10000	> 10000		> 10000			
CN(C)/N=N/c1[nH]cnc1C(N)=O [Dacarbazine]	> 10000	> 10000	> 10000	> 10000	> 10000	> 10000		> 10000		> 10000	> 10000	> 10000	> 10000	> 10000
Cc1ccc(-n2nc(C(C)(C)C)cc2NC(=O)Nc2ccc(OCCN3CCOCC3)c3ccccc23)cc1 [Doramapimod]	> 10000	> 10000	> 10000	3010	1760	> 10000		> 10000	> 10000		> 10000	1640	667	2330
COc1cccc2c1C(=O)c1c(O)c3c(c(O)c1C2=O)C[C@@](O)(C(=O)CO)C[C@@H]3O[C@H]1C[C@H](N)[C@H](O)[C@H](C)O1 [Doxorubicin]		346	> 1000	83.2	109	72.5	71.2	130	81.2	367		199	54.9	133
C[C@]12CC[C@@H]3c4ccc(O)cc4C[C@@H](CCCCCCCCC[S+]([O-])CCCC(F)(F)C(F)(F)F)[C@H]3[C@@H]1CC[C@@H]2O (some centres not stated) [Fulvestrant]	> 1000	> 1000	> 1000			> 1000	> 1000	> 1000	> 1000	> 1000	> 1000		> 1000	> 1000
Cc1cccc(-c2nn3c(c2-c2ccnc4ccc(C(N)=O)cc24)CCC3)n1 [Galunisertib]	> 1000	> 1000	> 1000	> 1000		> 1000		> 1000		> 1000	> 1000	> 1000	> 1000	> 1000
Cc1ccc(NC(=O)c2ccc(CN3CCN(C)CC3)cc2)cc1Nc1nccc(-c2cccnc2)n1 [Imatinib]	> 10000	> 10000	3580	> 10000	> 10000	1960		3530			> 10000	2380	1950	3190
C[C@]12O[C@H](C[C@]1(O)CO)n1c3ccccc3c3c4c(c5c6ccccc6n2c5c31)CNC4=O [Lestaurtinib]			290	29.3	24.9	101	93.8	130	155	> 1000		87.2	59.8	112
Cn1cnc(-c2cc3nccc(Oc4ccc(NC(=S)NC(=O)Cc5ccccc5)cc4F)c3s2)c1 [MGCD-265]	> 10000					501	2100	439		> 10000	> 10000			1730
O=C(O)CC[C@H]1CC[C@@](c2cc(F)ccc2F)(S(=O)(=O)c2ccc(Cl)cc2)CC1 [MK-0752]	> 1000	> 1000	> 1000			> 1000	> 1000	> 1000	> 1000	> 1000	> 1000	> 1000	> 1000	
NC(=O)c1cccc2cn(-c3ccc(C4CCCNC4)cc3)nc12 (configuration not stated) [MK-4827]	> 10000	> 10000	3040	2110		1680	1400	1650	1700					
